The source of these data is US20250313547A1, “CEREBLON LIGANDS AND BIFUNCTIONAL COMPOUNDS COMPRISING THE SAME” (Arvinas Operations, Inc., priority 2017, published 2025).

A value given as a limit tells only on which side of the number the result lay.

The experiment concerns androgen receptor (AR). The experiment is described as follows: AR ELISA assay (androgen receptor degradation). The class given is cell-based. Particulars: LNCaP and/or VCaP cells, 5 hours drug treatment; for AR Dmax: % degraded. The protocol: 5. AR ELISA Assay Protocol
Compounds were evaluated in this assay in LNCaP and/or VCaP cells utilizing similar protocols. The protocols used with VCaP cells are described below. The androgen receptor ELISA assay was performed using PathScan AR Sandwich ELISA (Cell Signaling Catalog #12850) according to the following assay steps:
VCaP cells were seeded at 40,000 cells/well at a volume of 100 µL/well in VCaP assay medium [Phenol red free RPMI (Gibco Cat #11835-030); 5% Charcoal Stripped (Dextran treated) FBS (Omega Scientific, Cat #FB-04); 1% penstrep (Life Technologies, Gibco Cat #: 10378-016)] in Corning 3904 plates. The cells were incubated for a minimum of 3 days. Cells were dosed with PROTACs diluted in 0.01% DMSO and the drug treatment was allowed for 5 hours.
AR ELISA (Cell Signaling) was performed as follows. 1×Cell Signaling Cell lysis buffer was made (Catalogue #9803; comes with the kit). Media from the treated wells is aspirated, and 100 μL 1×cell lysis buffer/well is added. The cells were placed on a shaker for 10 minutes at 4° C. Twenty microliters of lysate was transferred to 100 μl of Diluent in ELISA plate ([…]-0.075 μg/ml). The lysate-diluent mixture was shaken for 30 minutes at 37° C. Allow mouse AR antibody, anti-mouse antibody, TMB, and STOP solution to come to room temperature. The 1×ELISA buffer included in kit was made and loaded in the reservoir. Media from the plates was discarded, the ELISA plate tapped hard on paper towel, and washed 4×200 μl ELISA wash buffer using a plate washer.
One-hundred (100) μL/well of mouse AR detection Ab was added; the plates were covered and shaken at 37° C. for 1 hour; media was discarded from the plates, the plates were tapped on a paper towel, washed 4× with 200 μL ELISA wash buffer with a plate washer.
One-hundred (100) μL/well of anti-mouse—HRP conjugated Ab (comes with the kit) was added; the plates were covered and shaken at 37° C. for 30 minutes; the TMB reagent was allowed to come to room temperature; the media was discard from the plate, the plates were tapped on paper towel, washed 4× with 200 μL of ELISA wash buffer; the plates were tapped the plates on paper towel. One-hundred (100) μL of TMB was added and the plates shaken for 2 minutes—while watching for color development. One-hundred (100) μL Stop solution was added when light blue color developed. Plates were shaken and read at 450 nm.

As usually defined, the DC50 is the midpoint of the concentration-degradation curve. The low end stands for a more potent degrader, the high end for a less potent degrader.

For `CC1(C)[C@H](NC(=O)c2ccc(N3CCC(CN4CCN(c5ccc6c(c5)C(=O)N(c5ccc(O)[nH]c5=O)C6=O)CC4)CC3)cc2)C(C)(C)[C@H]1Oc1ccc(C#N)c(Cl)c1` [PROTAC-45, N-((1r,3r)-3-(3-chloro-4-cyanophenoxy)-2,2,4,4-tetramethylcyclobutyl)-4-(4-((4-(2-(6-hydroxy-2-oxo-1,2-dihydropyridin-3-yl)-1,3-dioxoisoindolin-5-yl)piperazin-1-yl)methyl)piperidin-1-yl)benzamide], the “AR Dmax” value is listed as “C (C <= 50)” and the DC50 is not below 100 nM.
On to `CC1(C)[C@H](NC(=O)c2ccc(N3CCN(CCOCCOCc4cc5ccccc5c(=O)n4C4CCC(=O)NC4=O)CC3)nc2)C(C)(C)[C@H]1Oc1ccc(C#N)c(Cl)c1` (stereo partly drawn) [PROTAC-46, N-((1r,3r)-3-(3-chloro-4-cyanophenoxy)-2,2,4,4-tetramethylcyclobutyl)-6-(4-(2-(2-((2-(2,6-dioxopiperidin-3-yl)-1-oxo-1,2-dihydroisoquinolin-3-yl)methoxy)ethoxy)ethyl)piperazin-1-yl)nicotinamide], for which the “AR Dmax” value is recorded as “C (C <= 50)” and the DC50 is not below 100 nM.
Take `Cn1c(-c2ccc(OCCCCCN3CCN(c4ccc(C(=O)N[C@H]5C(C)(C)[C@H](Oc6ccc(C#N)c(Cl)c6)C5(C)C)cc4)CC3)cc2)nn(C2CCC(=O)NC2=O)c1=O` (mixture of isomers) [PROTAC-69, rac-N-((1r,3r)-3-(3-chloro-4-cyanophenoxy)-2,2,4,4-tetramethylcyclobutyl)-4-(4-(5-(4-(1-(2,6-dioxopiperidin-3-yl)-4-methyl-5-oxo-4,5-dihydro-1H-1,2,4-triazol-3-yl)phenoxy)pentyl)piperazin-1-yl)benzamide]: the “AR Dmax” value was “B (50 < B <= 75)” and the DC50 is less than 1 nM.
In the same order, the values of `CC1(C)[C@H](NC(=O)c2ccc(N3CCC(CN4CCC5(CC4)CC(=O)N(C4CCC(=O)NC4=O)C5=O)CC3)cc2)C(C)(C)[C@H]1Oc1ccc(C#N)c(Cl)c1` (mixture of isomers) [PROTAC-75, rac-N-((1r,3r)-3-(3-chloro-4-cyanophenoxy)-2,2,4,4-tetramethylcyclobutyl)-4-(4-((2-(2,6-dioxopiperidin-3-yl)-1,3-dioxo-2,8-diazaspiro[4.5]decan-8-yl)methyl)piperidin-1-yl)benzamide] are 6C (C <= 50) and not below 100 nM.
In the case of `CC1(C)[C@H](NC(=O)c2ccc(N3CCC(CN4CCN(c5ccc6c(=O)n(C7CCC(=O)NC7=O)ccc6c5)CC4)CC3)cc2)C(C)(C)[C@H]1Oc1ccc(C#N)c(Cl)c1` (stereo partly drawn) [PROTAC-82, N-((1r,3r)-3-(3-chloro-4-cyanophenoxy)-2,2,4,4-tetramethylcyclobutyl)-4-(4-((4-(2-(2,6-dioxopiperidin-3-yl)-1-oxo-1,2-dihydroisoquinolin-6-yl)piperazin-1-yl)methyl)piperidin-1-yl)benzamide], the “AR Dmax” value was “A (A > 75)” and the DC50 is less than 1 nM.
For the compound `CC1(C)[C@H](NC(=O)c2ccc(N3CCN(CCCCCOc4ccc5c(c4)S(=O)(=O)N(C4CCC(=O)NC4=O)C5=O)CC3)nc2)C(C)(C)[C@H]1Oc1ccc(C#N)c(Cl)c1` (stereo partly drawn) [PROTAC-33, N-((1r,3r)-3-(3-chloro-4-cyanophenoxy)-2,2,4,4-tetramethylcyclobutyl)-6-(4-(5-((2-(2,6-dioxopiperidin-3-yl)-1,1-dioxido-3-oxo-2,3-dihydrobenzo[d]isothiazol-6-yl)oxy)pentyl)piperazin-1-yl)nicotinamide], the “AR Dmax” value is recorded as “B (50 < B <= 75)” and the half-maximal degradation concentration (DC50) lay in the range of 1 to 10 nM.
In the same order, the values of `CC1(C)[C@H](NC(=O)c2ccc(/C=C/CN3CCC4(CC3)CC(=O)N(C3CCC(=O)NC3=O)C4=O)cc2)C(C)(C)[C@H]1Oc1ccc(C#N)c(Cl)c1` (mixture of isomers) [PROTAC-77, rac-N-((1r,3r)-3-(3-chloro-4-cyanophenoxy)-2,2,4,4-tetramethylcyclobutyl)-4-((E)-3-(2-(2,6-dioxopiperidin-3-yl)-1,3-dioxo-2,8-diazaspiro[4.5]decan-8-yl)prop-1-en-1-yl)benzamide] are “C (C <= 50)” and not below 100 nM.
On the same counts, the results for `Cc1nc2c(OCCCCCN3CCN(c4ccc(C(=O)N[C@H]5C(C)(C)[C@H](Oc6ccc(C#N)c(Cl)c6)C5(C)C)cn4)CC3)cccc2c(=O)n1C1CCC(=O)NC1=O` (stereo partly drawn) [PROTAC-30, N-((1r,3r)-3-(3-chloro-4-cyanophenoxy)-2,2,4,4-tetramethylcyclobutyl)-6-(4-(5-((3-(2,6-dioxopiperidin-3-yl)-2-methyl-4-oxo-3,4-dihydroquinazolin-8-yl)oxy)pentyl)piperazin-1-yl)nicotinamide] are “C (C <= 50)” and not below 100 nM.
In the case of `CC1(C)[C@H](NC(=O)c2ccc(N3CCN(CCCCCOc4ccc(C(=O)NC5CCC(=O)NC5=O)nc4)CC3)nc2)C(C)(C)[C@H]1Oc1ccc(C#N)c(Cl)c1` (mixture of isomers) [PROTAC-27, rac-5-((5-(4-(5-(((1r,3r)-3-(3-chloro-4-cyanophenoxy)-2,2,4,4-tetramethylcyclobutyl)carbamoyl)pyridin-2-yl)piperazin-1-yl)pentyl)oxy)-N-(2,6-dioxopiperidin-3-yl)picolinamide], the “AR Dmax” value was “B (50 < B <= 75)” and the DC50 lay in the range of 1 to 10 nM.
Regarding `CC1(C)[C@H](NC(=O)c2ccc(N3CCC(CCN4CCN(c5ccc(C(=O)NC6CCC(=O)NC6=O)nc5)CC4)CC3)nc2)C(C)(C)[C@H]1Oc1ccc(C#N)c(Cl)c1` (mixture of isomers) [PROTAC-52, rac-5-(4-(2-(1-(5-(((1r,3r)-3-(3-chloro-4-cyanophenoxy)-2,2,4,4-tetramethylcyclobutyl)carbamoyl)pyridin-2-yl)piperidin-4-yl)ethyl)piperazin-1-yl)-N-(2,6-dioxopiperidin-3-yl)picolinamide], the “AR Dmax” value was “B (50 < B <= 75)” and the DC50 was less than 1 nM.
Regarding `Cn1c(-c2cccc(N3CCN(CC4CCN(c5ccc(C(=O)N[C@H]6C(C)(C)[C@H](Oc7ccc(C#N)c(Cl)c7)C6(C)C)cc5)CC4)CC3)c2)nn(C2CCC(=O)NC2=O)c1=O` (mixture of isomers) [PROTAC-68, rac-N-((1r,3r)-3-(3-chloro-4-cyanophenoxy)-2,2,4,4-tetramethylcyclobutyl)-4-(4-((4-(3-(1-(2,6-dioxopiperidin-3-yl)-4-methyl-5-oxo-4,5-dihydro-1H-1,2,4-triazol-3-yl)phenyl)piperazin-1-yl)methyl)piperidin-1-yl)benzamide], the “AR Dmax” value is “A (A > 75)” and the DC50 is less than 1 nM.
In the same order, the values of `C=C1CN(C2CCC(=O)NC2=O)C(=O)c2ccc(N3CCN(CC4CCN(c5ccc(C(=O)N[C@H]6C(C)(C)[C@H](Oc7ccc(C#N)c(Cl)c7)C6(C)C)cc5)CC4)CC3)cc21` (stereo partly drawn) [PROTAC-81, N-((1r,3r)-3-(3-chloro-4-cyanophenoxy)-2,2,4,4-tetramethylcyclobutyl)-4-(4-((4-(2-(2,6-dioxopiperidin-3-yl)-4-methylene-1-oxo-1,2,3,4-tetrahydroisoquinolin-6-yl)piperazin-1-yl)methyl)piperidin-1-yl)benzamide] are “A (A > 75)” and less than 1 nM.
Consider `CC1(C)[C@H](NC(=O)c2ccc(N3CCC(CN4CCN(c5ccc6c(c5)C(=O)N(c5ccc(=O)[nH]c5)C6=O)CC4)CC3)cc2)C(C)(C)[C@H]1Oc1ccc(C#N)c(Cl)c1` [PROTAC-43, N-((1r,3r)-3-(3-chloro-4-cyanophenoxy)-2,2,4,4-tetramethylcyclobutyl)-4-(4-((4-(1,3-dioxo-2-(6-oxo-1,6-dihydropyridin-3-yl)isoindolin-5-yl)piperazin-1-yl)methyl)piperidin-1-yl)benzamide], for which the “AR Dmax” value was “C (C <= 50)” and the DC50 was not below 100 nM.
In the same order, the values of `CC1(C)[C@H](NC(=O)c2ccc(CCCCN3CCN(c4cnn(C5CCC(=O)NC5=O)c(=O)c4)CC3)nc2)C(C)(C)[C@H]1Oc1ccc(C#N)c(Cl)c1` (stereo partly drawn) [PROTAC-61, N-((1r,3r)-3-(3-chloro-4-cyanophenoxy)-2,2,4,4-tetramethylcyclobutyl)-6-(4-(4-(1-(2,6-dioxopiperidin-3-yl)-6-oxo-1,6-dihydropyridazin-4-yl)piperazin-1-yl)butyl)nicotinamide] are “B (50 < B <= 75)” and less than 1 nM.
Regarding `CC1(C)[C@H](NC(=O)c2ccc(N3CCC(CN4CCN(c5ccc6c(c5)C(=O)N(c5ccc[nH]c5=O)C6=O)CC4)CC3)cc2)C(C)(C)[C@H]1Oc1ccc(C#N)c(Cl)c1` [PROTAC-44, rac-N-((1r,3r)-3-(3-chloro-4-cyanophenoxy)-2,2,4,4-tetramethylcyclobutyl)-4-(4-((4-(1,3-dioxo-2-(2-oxo-1,2-dihydropyridin-3-yl)isoindolin-5-yl)piperazin-1-yl)methyl)piperidin-1-yl)benzamide], the “AR Dmax” value is recorded as “C (C <= 50)” and the DC50 is not below 100 nM.
